Here are results for twelve compounds from PubChem BioAssay (NCI).

Among the test systems are 786-0 renal; BT-549 breast; COLO 205 colon; EKVX NSCLC; HL-60(TB) leukemia; NCI-H23 lung; NCI-H460 lung; NCI/ADR-RES ovarian; SF-295 CNS; SF-539 CNS; SR leukemia.
Holding throughout (assay): inhibition of tumour cell growth, NCI panel, 48 h

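These data come from cells grown in 96-well plates and exposed to compound for 48 hours at five concentrations. TGI is the concentration that stops growth completely.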

Take `CCOC(=O)CCC(NC(=O)c1ccc(OCc2nc3cc(C(F)(F)F)ccc3nc2-c2ccccc2)cc1)C(=O)OCC` (configuration not stated): the TGI in the assay on 786-0 renal was greater than 100 µM; in the assay with BT-549 breast it was greater than 100 µM; in the assay on COLO 205 colon, 32.3 µM; in the assay on EKVX NSCLC, greater than 100 µM; in the assay on HL-60(TB) leukemia it was greater than 100 µM; in the assay with NCI-H23 lung, greater than 100 µM. Besides, the TGI with NCI-H460 lung, with NCI/ADR-RES ovarian, with SF-295 CNS, with SF-539 CNS and in the assay with SR leukemia was greater than 100 µM each time.
Take `O=c1c2ccccc2[nH]c(=S)n1-c1ccc(N=Nc2cccc3c(O)cccc23)cc1`: the TGI in the assay on 786-0 renal, in the assay on BT-549 breast, in the assay with COLO 205 colon, in the assay on EKVX NSCLC, with HL-60(TB) leukemia and with NCI-H23 lung was greater than 100 µM in each case. Also, the TGI in the assay on NCI-H460 lung, in the assay on NCI/ADR-RES ovarian, in the assay with SF-295 CNS, in the assay with SF-539 CNS and in the assay with SR leukemia was greater than 100 µM throughout.
With `CCCCc1c(O)nc(Nc2nc3ccccc3[nH]2)[nH]c1=O`, the TGI with 786-0 renal, with BT-549 breast, in the assay on COLO 205 colon, with EKVX NSCLC, in the assay on HL-60(TB) leukemia and in the assay with NCI-H23 lung was greater than 100 µM throughout. In addition, the TGI in the assay on NCI-H460 lung, in the assay on NCI/ADR-RES ovarian, with SF-295 CNS, in the assay on SF-539 CNS and with SR leukemia was greater than 100 µM each time.
Turning to `Cc1cccc(N2C(=O)C3ON(C(C(N)=O)c4ccccc4)C(c4c5ccccc5c(Cl)c5ccccc45)C3C2=O)c1C` (configuration not stated), the TGI with 786-0 renal came out at 20.5 µM; in the assay on BT-549 breast, 22.6 µM; in the assay with COLO 205 colon, 16.7 µM; with EKVX NSCLC, 22.5 µM; with HL-60(TB) leukemia it was 23.3 µM; in the assay on NCI-H23 lung, 32.1 µM. Moreover, the TGI in the assay on NCI-H460 lung turned out to be 21.6 µM; in the assay on NCI/ADR-RES ovarian, 37.1 µM; in the assay with SF-295 CNS, 23 µM; with SF-539 CNS, 16.8 µM; in the assay on SR leukemia, 5.53 µM.
For `Cc1ccc(N=Nc2c3c(c(O)c4ccccc24)CCC(C)(C)O3)cc1`, the TGI is greater than 100 µM in the assay on 786-0 renal; 58.7 µM in the assay on BT-549 breast; 62.8 µM in the assay with COLO 205 colon; 75.3 µM with EKVX NSCLC; 49.7 µM in the assay with HL-60(TB) leukemia; 28.6 µM in the assay with NCI-H23 lung. The TGI with NCI-H460 lung is 32.8 µM; in the assay with NCI/ADR-RES ovarian it was greater than 100 µM; with SF-295 CNS, 28.8 µM; in the assay on SF-539 CNS it was greater than 100 µM; in the assay with SR leukemia, 38.8 µM.
Take `Cc1cn(C2CC(N)C(CN)O2)c(=O)[nH]c1=O` (configuration not stated): the TGI in the assay on 786-0 renal, with BT-549 breast, with COLO 205 colon, with EKVX NSCLC, with HL-60(TB) leukemia and in the assay with NCI-H23 lung was greater than 100 µM in each case. Further, the TGI with NCI-H460 lung, in the assay with NCI/ADR-RES ovarian, in the assay with SF-295 CNS, with SF-539 CNS and in the assay on SR leukemia was greater than 100 µM throughout.
In the case of `Cc1ccc(-c2cc(N)n(-c3nc4c([nH]3)c(=O)n(C)c(=O)n4C)n2)cc1`, the TGI in the assay on 786-0 renal is 13.6 µM; in the assay with BT-549 breast, 32.9 µM; in the assay with COLO 205 colon, 21.8 µM; in the assay on EKVX NSCLC it was 21.6 µM; in the assay with HL-60(TB) leukemia, greater than 100 µM; with NCI-H23 lung, 28 µM. Moreover, the TGI in the assay on NCI-H460 lung is 18.4 µM; with NCI/ADR-RES ovarian, 7.81 µM; with SF-295 CNS, 24.9 µM; with SF-539 CNS it was 16 µM; in the assay on SR leukemia, greater than 100 µM.
With `Nc1nc2ncc(SCc3ccc(C(=O)NC(CCC(=O)O)C(=O)O)cc3)cc2c(=O)[nH]1` (configuration not stated), the TGI in the assay with 786-0 renal, in the assay with BT-549 breast, in the assay with COLO 205 colon, in the assay with EKVX NSCLC, in the assay on HL-60(TB) leukemia and in the assay with NCI-H23 lung was greater than 100 µM throughout. The TGI with NCI-H460 lung, in the assay on NCI/ADR-RES ovarian, with SF-295 CNS, in the assay on SF-539 CNS and in the assay on SR leukemia was greater than 100 µM in each case.
For the compound `O=C(/C(=C(/Br)I)c1ccccc1)c1ccccc1`, the TGI in the assay on 786-0 renal was 39.5 µM; in the assay on BT-549 breast it was 54.3 µM; in the assay on COLO 205 colon, 36.5 µM; in the assay with EKVX NSCLC, 89.1 µM; in the assay with HL-60(TB) leukemia it was greater than 100 µM; in the assay on NCI-H23 lung it was greater than 100 µM. The TGI in the assay with NCI-H460 lung was 37.2 µM; in the assay on NCI/ADR-RES ovarian, 37.4 µM; in the assay on SF-295 CNS, 69.6 µM; with SF-539 CNS it was 37.7 µM; in the assay with SR leukemia, greater than 100 µM.
As for `O=C(O)c1ccc(NC(c2ccccc2)c2ccc3cccnc3c2O)cc1` (configuration not stated), the TGI in the assay on 786-0 renal is greater than 76.6 µM; with BT-549 breast, greater than 74 µM; in the assay on COLO 205 colon, greater than 86.9 µM; in the assay on EKVX NSCLC it was greater than 85.6 µM; with HL-60(TB) leukemia it was 10.4 µM; with NCI-H23 lung, greater than 100 µM. Further, the TGI is greater than 48.5 µM with NCI-H460 lung; greater than 45.3 µM in the assay with NCI/ADR-RES ovarian; greater than 100 µM with SF-295 CNS; 25.9 µM in the assay with SF-539 CNS; greater than 100 µM with SR leukemia.
As for `Cc1c(Cl)ccc2c(=O)c3cccc(CC(=O)O)c3oc12`, the TGI with 786-0 renal, in the assay on BT-549 breast, in the assay on COLO 205 colon, in the assay with EKVX NSCLC, with HL-60(TB) leukemia and in the assay on NCI-H23 lung was greater than 100 µM throughout. For the same compound, the TGI in the assay with NCI-H460 lung, in the assay on NCI/ADR-RES ovarian, in the assay with SF-295 CNS, with SF-539 CNS and with SR leukemia was greater than 100 µM throughout.
Regarding `c1sc(NC2=NCCO2)c2c1CCCC2`, the TGI in the assay on 786-0 renal, in the assay with BT-549 breast, in the assay on COLO 205 colon, in the assay on EKVX NSCLC, in the assay on HL-60(TB) leukemia and in the assay on NCI-H23 lung was greater than 100 µM in each case. Further, the TGI with NCI-H460 lung, in the assay with NCI/ADR-RES ovarian, in the assay with SF-295 CNS, in the assay on SF-539 CNS and in the assay with SR leukemia was greater than 100 µM each time.
